Peptide text beside a SMILES is read from it.
Conditions: not given

Structure (SMILES) | logP
COc1ccc(OC(=O)c2ccc(N)cc2O)cc1 | 3.07
O=CNc1ccc2[nH]ccc2c1 | 1.07
CN(C)C(N(C)C)=S(I)c1ccc(Br)cc1 (stereo unspecified) | 0.06
Nc1nc(N)nc(-c2ccc(F)cc2)n1 | 1.61
NNC(=O)c1ccccc1 | 0.19
CCOc1ccc(S(I)=C(N(C)C)N(C)C)cc1 (stereo unspecified) | -0.06
C=CCC | 2.4
CN(C)C1=CC(=O)c2ccccc2C1=O | 1.9
CCOC(=O)C(=O)OCC | 0.56
O=C(O)c1ccccc1C(=O)O | 0.73
Clc1cccnc1Cl | 2.11
CCCCOC(=O)NCC(C)c1ncc([N+](=O)[O-])[nH]1 (stereo unspecified) | 1.22
O=C(O)CCS | 0.43
O=C1C=C(N2CCCC2)C(=O)C=C1N1CCCC1 | 1.97
CC(=O)Oc1ccccc1C(F)(F)F | 2.59
O=[N+]([O-])c1cnc(NC(CO)C(O)CO)cn1 (stereo unspecified) | -0.89
CON(C)C(=O)Nc1ccc2c(c1)Cc1ccccc1-2 | 3.67
C=CCC1(C2C=CCC2)C(=O)NC(=O)NC1=O (stereo unspecified) | 1.51
CC(=O)OCC(=O)[C@@]1(O)[C@@H](C)C[C@H]2[C@@H]3CCC4=CC(=O)C=C[C@]4(C)[C@@]3(F)[C@@H](O)C[C@@]21C | 2.77
NS(=O)(=O)c1ccc2c(c1)S(=O)(=O)NCN2 | -0.52
CN(C)/N=N/c1ccccc1I | 3.5
COC1C(O)CC(OC2C(O)CC(OC3C(O)CC(OC4CCC5(C)C(CCC6C5CC(OC(C)=O)C5(C)C(C7=CC(=O)OC7)CCC65O)C4)OC3C)OC2C)OC1C (stereo unspecified) | 2.87
CC(C)c1cccc(C(C)C)c1NC(N)=O | 2.26

Structure (SMILES) | logP
Clc1cc(Cl)nc(Cl)c1 | 2.68
CC(C)=CC1C(C(=O)OCc2ccccc2)C1(C)C (stereo unspecified) | 5.49
Cc1ccc(S(I)=C(N(C)C)N(C)C)cc1Cl (stereo unspecified) | 0.45
CCCN(CCC)C1CCOc2ccc(O)cc21 (stereo unspecified) | 3.17
ClCc1ccc(Cl)cc1Cl | 3.82
O=C(O)c1ccccc1[N+](=O)[O-] | 1.46
CN(C(N)=S)c1ccccc1 | 0.85
CCCC(=O)O[C@H]1[C@H](C)O[C@@H](O[C@H]2[C@H](N(C)C)[C@@H](O)[C@H](O[C@H]3[C@@H](CC=O)C[C@@H](C)[C@@H](O)C=CC=CC[C@@H](C)OC(=O)C[C@@H](O)[C@@H]3OC)O[C@@H]2C)C[C@@]1(C)OC(=O)CC | 3.08
CC(=O)Nc1ccc2cccccc1-2 | 2.48
CCCCC(O)CC (stereo unspecified) | 2.24
O=C(NC(CO)C(O)c1ccc(Br)cc1)C(Cl)Cl (stereo unspecified) | 1.87
Nc1ccc2cc3ccc(N)cc3nc2c1 | 1.83
CC(=O)OC(OC(C)=O)c1ccc([N+](=O)[O-])o1 | 1.06
O=C(O)COc1ccc(Cl)c(Cl)c1 | 2.81
CCC(C)c1cccc(C(C)CC)c1O (stereo unspecified) | 4.36
Nc1cccc(OC(=O)c2ccc(N)cc2O)c1 | 2.08
Clc1ccc(-c2ccc(Cl)cc2Cl)c(Cl)c1 | 6.29
CC(C)CCO[N+](=O)[O-] | 2.84
Cc1cc(C)[nH]n1 | 1.01
O=S1OCC2C(CO1)C1(Cl)C(Cl)=C(Cl)C2(Cl)C1(Cl)Cl (stereo unspecified) | 3.83
CCCOC(=O)c1ccc(S(N)(=O)=O)cc1 | 1.75
O=C(O)CN1CCN(C(=O)Cn2c(=O)sc3ccc(Cl)cc32)CC1 | -0.71
OC(CF)CF | -0.36

Structure (SMILES) | logP
C=CCC1(CC)C(=O)NC(=O)NC1=O | 0.95
c1ccsc1 | 1.81
NC(=O)CCCc1ccccn1 | -0.01
O=NN1CCC(Cl)C(Cl)C1 (stereo unspecified) | 1.04
CCCCOCc1cccc(NC(=O)OCCN2CCCCC2)c1 | 3.73
Cc1ccc2cccc(O)c2n1 | 2.33
CCNc1nc(NCC(C)C)nc(SC(F)F)n1 | 4.3
O=C(O)c1c(O)cccc1O | 2.2
CC(=O)N[C@@H](CC(N)=O)C(=O)N[C@H](C(N)=O)C(C)C | -1.85
O=C1c2ccccc2C(=O)c2ccccc21 | 3.39
O=C(NCCN1CCC(O)(c2ccc(Cl)cc2)CC1)c1ccc(F)cc1 | 2.85
CNC(=O)C=Cc1ccccc1 | 1.81
O=c1[nH]cnc2ccccc12 | 0.77
CCC(=O)C(CC(C)N(C)C)(c1ccccc1)c1ccccc1 (stereo unspecified) | 3.93
NNC(=O)c1cccc(Cl)c1 | 1.18
O=C1C=C(N2CCCC2)C(=O)c2ccccc21 | 2.89
BrCCCBr | 2.37
O=C1CCC(=O)N1c1ccccc1F | 0.22
Oc1c(Br)cc(Br)cc1Br | 4.13
CCOC(=O)n1cc(F)c(=O)[nH]c1=O | -0.17
c1ccc(-c2cc(-c3ccccc3)c(NCCN3CCOCC3)nn2)cc1 | 3.38
CN1C(=O)CN=C(c2ccccc2F)c2cc(F)ccc21 | 2.41
COc1cc(C(=O)NN)ccn1 | -0.1

Structure (SMILES) | logP
Clc1c(Cl)c(Cl)c2n[nH]nc2c1Cl | 4.17
Cc1ccc2cccc(C)c2c1 | 4.44
CC(C)(CCC(=O)O)C(=O)O | 0.67
CCCCCOC(=O)c1cc(O)c(O)c(O)c1 | 2.67
CC(C)(C)C(=O)OCC1CCC(n2cnc3c(=O)[nH]cnc32)O1 (stereo unspecified) | 0.6
CCNc1nc(NCC)nc(SC(F)F)n1 | 3.28
O=Cc1ccc([N+](=O)[O-])o1 | 1.01
CNC(=O)Oc1ccc(C)c(C)c1 | 2.09
Oc1nc2ccccc2[nH]1 | 1.12
CN(C)C(=O)N(C)N=O | 0.36
CC(C)C(=O)OCC1CCC(n2cnc3c(=O)[nH]cnc32)O1 (stereo unspecified) | 0.02
c1ccc(N=Nc2ccccc2)cc1 | 3.82
CC(=O)N[C@@H](Cc1ccccc1)C(=O)N[C@H](C(N)=O)C(C)C (Ac-Phe-Val-NH2) | 0.43
CC(=O)c1cccnc1 | 0.43
Clc1cccc(C(Cl)(Cl)Cl)n1 | 3.41
N#CCCN(CCC#N)N=O | 0.08
CCOC(=O)c1ccc(N)cc1 | 1.86
CC1OC(C)OC(C)O1 (stereo unspecified) | 0.67
CCC(C(N)=O)(C(N)=O)c1ccccc1 | 0.13
CCOC(=O)NCCOc1ccc(Oc2ccccc2)cc1 | 4.3
CCCCF | 2.58
NC(C(=O)O)c1cccs1 (stereo unspecified) | -2.05
COc1ccc2c(c1)OC(C)(C)C=C2 | 3.35

Structure (SMILES) | logP
SC1=NCCCN1 | -0.68
CC(=O)c1cccc(F)c1 | 1.77
Cc1cc(NS(=O)(=O)c2ccc(N)cc2)nc(C)n1 | -0.33
CN(Cc1cnc2nc(N)nc(N)c2n1)c1c(Cl)cc(C(=O)N[C@@H](CCC(=O)O)C(=O)O)cc1Cl | -0.1
Nc1cccc(CO)c1 | -0.05
CC(=Cc1ccccc1)[N+](=O)[O-] | 2.52
CCc1cccc(OCC(=O)O)c1 | 2.25
CCOC(=O)C(C)NC(=O)CCCCSc1ncnc2nc[nH]c12 (stereo unspecified) | 1.51
CNC(=O)Oc1ccccc1C(C)(C)C | 2.65
OCC(F)(F)F | 0.41
CCCCCCCCCC(=O)OC | 4.41
O=C(O)CSc1ccccc1 | 1.88
CS(=O)(=O)c1ccc(C(O)C(CO)NC(=O)C(Cl)Cl)cc1 (stereo unspecified) | -0.27
S=P(N1CC1)(N1CC1)N1CC1 | 0.53
C=CCN(CC=C)CC=C | 2.59
CCCCCc1ccccc1 | 4.9
Clc1cccc(Cl)c1 | 3.53
CCCCOCN(C(=O)CCl)c1c(CC)cccc1CC | 4.5
COc1ccc(CC(=O)O)cc1 | 1.42
CCCN(CCC)CC(=O)OCn1ncc2c(=O)[nH]cnc21 | 1.27
O=C(NP(=O)(N1CC1)N1CC1)c1ccccc1I | 1.05
Cc1nnc(NS(=O)(=O)c2ccc(N)cc2)s1 | 0.54
Nc1ccc(I)cc1 | 2.34

Structure (SMILES) | logP
OCc1ccc2ccccc2c1 | 2.21
O=C1CCC(=O)N1c1cccc([N+](=O)[O-])c1 | 0.38
Nc1ccc(C(=O)O)c(Cl)c1 | 1.33
C[C@]12C[C@H](O)[C@H]3[C@@H](CCC4=CC(=O)CC[C@@]43C)[C@@H]1CC[C@@H]2C(=O)CO | 1.94
CC(C)C[N+](=O)[O-] | 1.4
COc1cc(NCc2ccc3nc(N)nc(N)c3c2C)cc(OC)c1OC | 2.55
CC(=O)c1ccc(N)cc1 | 0.83
Clc1ccccc1Cl | 3.43
NCCc1ccncc1 | -0.01
CN=C(O)Oc1cccc(C)c1 | 1.7
CC(C)(C)c1cccc(OCC(=O)O)c1 | 2.96
CC(=O)Nc1cnc2ccccc2n1 | 1.53
OC(c1ccccc1)C(O)c1ccccc1 (stereo unspecified) | 1.91
Nc1ccccc1-c1ccccc1 | 2.84
O=C1OCc2c(Cl)c(Cl)c(Cl)c(Cl)c21 | 3.2
FC(F)(F)c1cccc(C(F)(F)F)c1 | 3.83
CCC(=O)C(CS(=O)(=O)c1ccccc1)c1ccc(OC)cc1 (stereo unspecified) | 2.18
CC(C)c1ccccc1O | 2.88
CCCCNc1ccccc1OC | 2.85
COc1ccccc1N(C)C | 1.63
O=[N+]([O-])c1ccc(C=NO)cc1 | 1.95
CCC(=O)Nc1ccc(Cl)c(Cl)c1 | 3.07
CNC | -0.38

Structure (SMILES) | logP
O=C(Cn1cnc([N+](=O)[O-])n1)N1CCOCC1 | -0.96
Cc1ncc([N+](=O)[O-])n1CCCl | 0.88
COc1ccccc1NC(C)=O | 0.67
CCc1ccccc1O | 2.47
c1cc2ccc3ccc4ccc5cccc6c(c1)c2c3c4c56 | 6.63
O=C1C=CC(=O)c2c(O)cccc21 | 1.92
COc1ccc2nc(N)[nH]c2c1 | 0.57
CCCCOc1cccc(OC(=O)NC)c1 | 2.96
CC(C)c1ccc([N+](=O)[O-])cc1 | 3.45
C#CC(C)(C)O | 0.28
CCc1ccccc1CC | 3.72
O=C(CN1CCCCC1)Nc1ccc(F)cc1 | 2.7
NS(=O)(=O)c1nc2ccccc2s1 | 1.33
Brc1ccccn1 | 1.42
CCOC(=O)/C(=C\c1ccccc1Cl)C(C)=O | 2.84
Cc1ccc(S(=O)(=O)N(C)N=O)cc1 | 0.58
O=C1NC(=O)c2ccccc21 | 1.15
O=C(O)Cc1ccc(Cl)cc1 | 2.12
CC(=O)Nc1ncc([N+](=O)[O-])s1 | 1.3
NC(=O)[C@@H]1CCCN1C(=O)[C@H](Cc1cnc[nH]1)NC(=O)[C@@H]1CCC(=O)N1 | -2.46
c1nc[nH]n1 | -0.58
NC(=O)NC(=O)Cc1ccccc1 | 0.87

Same assay, conditions: pH 7.2

Structure (SMILES) | logD
COC(=O)C(c1ccccc1)C1CCCCN1 (stereo unspecified) | 0.2

Source: the OPERA property sets (Mansouri et al. 2018)
